In paper PMC10167657, “Reaction Mechanism of Glycoside Hydrolase Family 116 Utilizes Perpendicular Protonation” (ACS Catalysis, 2023):

Target: T1, TxGH116 β-glucosidase (Thermoanaerobacterium xylanolyticum, UniProt F6BL85, D593N)
T1 construct: gene Thexy_2211; pET30a/TxGH116Δ1-18 (residues 1-18 removed), E. coli BL21(DE3), IMAC, tag cut with enterokinase, Superdex 200
Assay: X-ray crystal structure, soaked crystal
Assay type: binding
Conditions: pH 5.5

[1] = 200 mM soak, subsites –1 and +1 (Michaelis complex)

T1 sequence (F6BL85 entry or part of it D593N): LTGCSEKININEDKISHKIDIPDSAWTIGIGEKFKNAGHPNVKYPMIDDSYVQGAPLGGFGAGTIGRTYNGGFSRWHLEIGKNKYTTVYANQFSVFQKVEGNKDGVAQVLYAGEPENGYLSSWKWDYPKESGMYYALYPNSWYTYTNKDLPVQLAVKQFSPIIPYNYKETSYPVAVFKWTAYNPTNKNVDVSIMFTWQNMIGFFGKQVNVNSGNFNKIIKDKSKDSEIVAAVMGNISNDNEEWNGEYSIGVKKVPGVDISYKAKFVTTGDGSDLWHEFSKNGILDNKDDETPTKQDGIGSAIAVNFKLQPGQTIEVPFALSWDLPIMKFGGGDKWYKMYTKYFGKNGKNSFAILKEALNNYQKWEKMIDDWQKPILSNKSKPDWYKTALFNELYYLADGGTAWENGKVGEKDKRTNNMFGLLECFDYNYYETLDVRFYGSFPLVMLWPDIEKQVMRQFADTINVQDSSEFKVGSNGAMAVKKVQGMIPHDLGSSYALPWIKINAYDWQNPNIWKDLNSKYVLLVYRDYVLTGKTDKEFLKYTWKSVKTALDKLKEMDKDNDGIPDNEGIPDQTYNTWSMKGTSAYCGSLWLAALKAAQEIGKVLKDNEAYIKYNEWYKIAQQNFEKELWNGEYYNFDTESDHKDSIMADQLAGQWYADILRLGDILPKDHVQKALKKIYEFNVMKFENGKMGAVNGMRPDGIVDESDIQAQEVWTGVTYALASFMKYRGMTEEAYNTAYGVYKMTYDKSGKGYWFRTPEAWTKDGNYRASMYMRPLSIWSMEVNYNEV

## OC[C@H]1O[C@@H](O[C@H]2[C@H](O)[C@@H](O)C(O)O[C@@H]2CO)[C@H](O)[C@@H](O)[C@@H]1O (stereo partly drawn) [cellobiose]
[1]
  X-ray crystal structure, soaked crystal: The structure of TxGH116 D593N with cellobiose shows the same interactions

## O=[N+]([O-])c1ccc(O[C@@H]2O[C@H](CO)[C@@H](O)[C@H](O)[C@H]2F)c([N+](=O)[O-])c1 [2,4-dinitrophenyl 2-deoxy-2-fluroglucopyranoside]
Covalent 2-deoxy-2-fluoroglucosyl-enzyme at nucleophile E441, 10 mM soak
  X-ray crystal structure, soaked crystal: The covalent complex of TxGH116 D593N with G2F exhibits an overall structure

## OC[C@H]1O[C@@H](O[C@H]2[C@H](O)[C@@H](CO)OC(O)[C@@H]2O)[C@H](O)[C@@H](O)[C@@H]1O (stereo partly drawn) [laminaribiose]
[1]
  X-ray crystal structure, soaked crystal: The TxGH116 D593N variant with laminaribiose (Figure 2B) displays the glycosidic oxygen
